The values below come from ChEMBL document CHEMBL1133325, “Synthesis and biological activity of fluoro-substituted pyrrolo[2,3-d]pyrimidines: the development of potential positron emission tomography imaging agents for the corticotropin-releasing hormone type 1 receptor” (Bioorg Med Chem Lett, 2000).

This test deals with T1, Corticotropin-releasing factor receptor 1 (Rattus norvegicus, UniProt P35353).
T1 sequence (P35353 whole entry): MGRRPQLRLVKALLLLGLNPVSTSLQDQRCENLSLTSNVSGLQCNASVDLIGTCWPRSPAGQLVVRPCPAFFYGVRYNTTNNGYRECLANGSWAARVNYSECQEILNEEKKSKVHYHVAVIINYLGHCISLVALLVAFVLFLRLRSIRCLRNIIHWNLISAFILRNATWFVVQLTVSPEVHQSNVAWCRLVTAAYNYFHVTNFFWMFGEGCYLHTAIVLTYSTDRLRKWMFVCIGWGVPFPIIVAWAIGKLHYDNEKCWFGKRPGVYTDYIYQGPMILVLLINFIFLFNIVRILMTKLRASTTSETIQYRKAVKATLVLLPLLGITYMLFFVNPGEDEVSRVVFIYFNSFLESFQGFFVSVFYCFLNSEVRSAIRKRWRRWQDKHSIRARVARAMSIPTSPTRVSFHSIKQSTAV
Briefly: Compound was tested in vitro for its ability to displace [125 I]Tyr-sauvagine from corticotropin-releasing hormone type 1 receptor in rat cerebellum. Format: tissue-based.
Turning to `Cc1cc(C)c(-n2c(C)c(C)c3c(N4CCN(CCF)CC4)nc(C)nc32)c(C)c1`, the inhibition constant Ki was above 1000 nM.

The molecule `CCCCN(CCCCF)c1nc(C)nc2c1c(C)c(C)n2-c1c(C)cc(C)cc1C` displayed a Ki of 10 nM.

The molecule `Cc1cc(C)c(-n2c(C)c(C)c3c(N(CCCF)CC4CC4)nc(C)nc32)c(C)c1` showed a Ki of 30 nM.

`CCCN(CC1CC1)c1nc(C)nc2c1c(C)c(C)n2-c1c(C)cc(C)cc1C` returned an inhibition constant Ki of 2.3 nM. This Ki is about 13-fold lower than that of the molecule before.

For the molecule `CCN(CCCCF)c1nc(C)nc2c1c(C)c(C)n2-c1c(C)cc(C)cc1C`, the Ki came to 3.5 nM. This Ki lies about 1.5-fold higher than the previous one.

As for `CCCN(CCCCF)c1nc(C)nc2c1c(C)c(C)n2-c1c(C)cc(C)cc1C`, the Ki is 0.91 nM.

The molecule `CCCCN(CC)c1nc(C)nc2c1c(C)c(C)n2-c1c(C)cc(C)cc1C` [ANTALARMIN] came in with a Ki of 2.5 nM.
